# Assay results as given in patent publication US9833497B2, “Human originated EGF domain proteins and use of the same” (CHENGDU SOURCEBIO LIMITED-LIABILITY COMPANY, priority 2013, dated 2017).
# Key:
# Format in all cases: cell-based
# Moraxella catarrhalis = experiment: MIC against Gram-negative bacteria: Moraxella catarrhalis; details: for MIC M. catarrhalis / MIC (μg/mL) M. catarrhalis / MIC against M. catarrhalis: 5×10^5 CFU/mL
# In short: (§1)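 MIC, the lowest recombinant protein concentration giving no bacterial growth, found by two-fold serial dilution of human EGF-domain proteins in triplicate. Inoculum 5×10^5 CFU/mL in LB from cultures at McFarland 0.5; plates incubated at 37° C, 175 rpm shaking.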
# E. coli BL21 = experiment: MIC against Gram-negative bacteria: E. coli BL21; details: for MIC E. coli BL21 / MIC (μg/mL) E. coli BL21 / MIC against E. coli BL21: 5×10^5 CFU/mL
# In short: as §1
# Proteus vulgaris = experiment: MIC against Gram-negative bacteria: Proteus vulgaris; details: for MIC P. vulgaris / MIC (μg/mL) P. vulgaris / MIC against P. vulgaris: 5×10^5 CFU/mL
# In short: as §1
# Aeromonas hydrophila = experiment: MIC against Gram-negative bacteria: Aeromonas hydrophila; details: for MIC A. hydrophila / MIC (μg/mL) A. hydrophila / MIC against A. hydrophila: 5×10^5 CFU/mL
# In short: as §1
# Klebsiella pneumonia = experiment: MIC against Gram-negative bacteria: Klebsiella pneumonia; details: for MIC K. pneumonia / MIC (μg/mL) K. pneumonia / MIC against K. pneumonia: 5×10^5 CFU/mL
# In short: as §1
# Proteus mirabilis = experiment: MIC against Gram-negative bacteria: Proteus mirabilis; details: for MIC P. mirabilis / MIC (μg/mL) P. mirabilis / MIC against P. mirabilis: 5×10^5 CFU/mL
# In short: as §1
# Enterobacter cloacae = experiment: MIC against Gram-negative bacteria: Enterobacter cloacae; details: for MIC E. cloacae / MIC (μg/mL) E. cloacae / MIC against E. cloacae: 5×10^5 CFU/mL
# In short: as §1
# Pseudomonas aeruginosa = experiment: MIC against Gram-negative bacteria: Pseudomonas aeruginosa; details: for MIC P. aeruginosa / MIC (μg/mL) P. aeruginosa / MIC against P. aeruginosa: 5×10^5 CFU/mL
# In short: as §1
# Citrobacter diversus = experiment: MIC against Gram-negative bacteria: Citrobacter diversus; details: for MIC C. diversus / MIC (μg/mL) C. diversus / MIC against C. diversus: 5×10^5 CFU/mL
# In short: as §1
# Serratia marcescens = experiment: MIC against Gram-negative bacteria: Serratia marcescens; details: for MIC S. marcescens / MIC (μg/mL) S. marcescens / MIC against S. marcescens: 5×10^5 CFU/mL
# In short: as §1
# E. coli DH5α = experiment: Antibacterial activity: MIC and growth curve against E. coli DH5α in 96-well plate; details: minimal inhibitory concentration against E. coli DH5α; 96-well plate, 5×10^5 CFU/mL, 37° C., judged after 8 h
# In short: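 Log-phase DH5α (OD600 about 0.5, 37° C, 185 rpm in LB) was pelleted, resuspended in fresh LB and seeded at 5×10^5 CFU/mL with recombinant protein at 50, 25 and 12.5 μg/mL (two-fold series), in triplicate. Plates were shaken at 175 rpm, 37° C, and OD600 was read every 30 min. MIC was the lowest concentration with no growth.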
# [1] = 10 h cultivation at 37° C., two-fold serial dilution
# [2] = Moraxella catarrhalis, 96-well plate, 37° C., 10 h
# [3] = E. coli BL21, 96-well plate, 37° C., 10 h
# [4] = Proteus vulgaris, 96-well plate, 37° C., 10 h
# [5] = Aeromonas hydrophila, 96-well plate, 37° C., 10 h
# [6] = Klebsiella pneumonia, 96-well plate, 37° C., 10 h
# [7] = Proteus mirabilis, 96-well plate, 37° C., 10 h
# [8] = Enterobacter cloacae, 96-well plate, 37° C., 10 h
# [9] = Pseudomonas aeruginosa, 96-well plate, 37° C., 10 h
# [10] = Citrobacter diversus, 96-well plate, 37° C., 10 h
# [11] = Serratia marcescens, 96-well plate, 37° C., 10 h
substance,measurement,setting,value
PRT1144 (NANDCLSNPCLHGRCTELINEYPCSCDADGTSTQCK; listed as Homo sapiens),MIC M. catarrhalis,Moraxella catarrhalis; [1],50 µg/mL
same,MIC E. coli BL21,E. coli BL21; [1],12.5 µg/mL
same,MIC P. vulgaris,Proteus vulgaris; [1],12.5 µg/mL
same,MIC A. hydrophila,Aeromonas hydrophila; [1],12.5 µg/mL
same,MIC K. pneumonia,Klebsiella pneumonia; [1],12.5 µg/mL
same,MIC P. mirabilis,Proteus mirabilis; [1],25 µg/mL
same,MIC E. cloacae,Enterobacter cloacae; [1],50 µg/mL
same,MIC P. aeruginosa,Pseudomonas aeruginosa; [1],50 µg/mL
same,MIC C. diversus,Citrobacter diversus; [1],25 µg/mL
same,MIC S. marcescens,Serratia marcescens; [1],25 µg/mL
same,MIC,E. coli DH5α,50 µg/mL
PRT120 (CRPCQNGGLATVEGTHCLCHCKPYTFGAACE; listed as Homo sapiens),MIC (μg/mL) M. catarrhalis,Moraxella catarrhalis; [2],100 µg/mL
same,MIC (μg/mL) E. coli BL21,E. coli BL21; [3],12.5 µg/mL
same,MIC (μg/mL) P. vulgaris,Proteus vulgaris; [4],25 µg/mL
same,MIC (μg/mL) A. hydrophila,Aeromonas hydrophila; [5],12.5 µg/mL
same,MIC (μg/mL) K. pneumonia,Klebsiella pneumonia; [6],12.5 µg/mL
same,MIC (μg/mL) P. mirabilis,Proteus mirabilis; [7],12.5 µg/mL
same,MIC (μg/mL) E. cloacae,Enterobacter cloacae; [8],12.5 µg/mL
same,MIC (μg/mL) P. aeruginosa,Pseudomonas aeruginosa; [9],12.5 µg/mL
same,MIC (μg/mL) C. diversus,Citrobacter diversus; [10],12.5 µg/mL
same,MIC (μg/mL) S. marcescens,Serratia marcescens; [11],12.5 µg/mL
same,MIC,E. coli DH5α,12.5 µg/mL
PRT710 (DQDECAVYGTCSQTCRNTHGSYTCSCVEGYLMQPDNRSCK; listed as Homo sapiens),MIC M. catarrhalis,"Moraxella catarrhalis; 96-well plate, 37° C., 10 h",25 µg/mL
same,MIC E. coli BL21,"E. coli BL21; 96-well plate, 37° C., 10 h",12.5 µg/mL
same,MIC P. vulgaris,"Proteus vulgaris; 96-well plate, 37° C., 10 h",25 µg/mL
same,MIC A. hydrophila,"Aeromonas hydrophila; 96-well plate, 37° C., 10 h",12.5 µg/mL
same,MIC K. pneumonia,"Klebsiella pneumonia; 96-well plate, 37° C., 10 h",12.5 µg/mL
same,MIC P. mirabilis,"Proteus mirabilis; 96-well plate, 37° C., 10 h",12.5 µg/mL
same,MIC E. cloacae,"Enterobacter cloacae; 96-well plate, 37° C., 10 h",50 µg/mL
same,MIC P. aeruginosa,"Pseudomonas aeruginosa; 96-well plate, 37° C., 10 h",50 µg/mL
same,MIC C. diversus,"Citrobacter diversus; 96-well plate, 37° C., 10 h",50 µg/mL
same,MIC S. marcescens,"Serratia marcescens; 96-well plate, 37° C., 10 h",50 µg/mL
same,MIC,E. coli DH5α,25 µg/mL
PRT29 (PCNCDVHKGFDPNCNKTNGQCHCKEFHYRPRGSDSCLP; listed as Homo sapiens),MIC (μg/mL) M. catarrhalis,Moraxella catarrhalis; [2],12.5 µg/mL
same,MIC (μg/mL) E. coli BL21,E. coli BL21; [3],25 µg/mL
same,MIC (μg/mL) P. vulgaris,Proteus vulgaris; [4],50 µg/mL
same,MIC (μg/mL) A. hydrophila,Aeromonas hydrophila; [5],25 µg/mL
same,MIC (μg/mL) K. pneumonia,Klebsiella pneumonia; [6],25 µg/mL
same,MIC (μg/mL) P. mirabilis,Proteus mirabilis; [7],25 µg/mL
same,MIC (μg/mL) E. cloacae,Enterobacter cloacae; [8],50 µg/mL
same,MIC (μg/mL) P. aeruginosa,Pseudomonas aeruginosa; [9],12.5 µg/mL
same,MIC (μg/mL) C. diversus,Citrobacter diversus; [10],25 µg/mL
same,MIC (μg/mL) S. marcescens,Serratia marcescens; [11],12.5 µg/mL
same,MIC,E. coli DH5α,25 µg/mL
PRT556 (CQCSSPGVADDRCDPDTGQCRCRVGFEGATCDRCAPGYFHFPLCQL; listed as Homo sapiens),MIC against M. catarrhalis,"Moraxella catarrhalis; 96-well plate, 37° C., 10 h",12.5 µg/mL
same,MIC against E. coli BL21,"E. coli BL21; 96-well plate, 37° C., 10 h",50 µg/mL
same,MIC against P. vulgaris,"Proteus vulgaris; 96-well plate, 37° C., 10 h",12.5 µg/mL
same,MIC against A. hydrophila,"Aeromonas hydrophila; 96-well plate, 37° C., 10 h",50 µg/mL
same,MIC against K. pneumonia,"Klebsiella pneumonia; 96-well plate, 37° C., 10 h",50 µg/mL
same,MIC against P. mirabilis,"Proteus mirabilis; 96-well plate, 37° C., 10 h",25 µg/mL
same,MIC against E. cloacae,"Enterobacter cloacae; 96-well plate, 37° C., 10 h",12.5 µg/mL
same,MIC against P. aeruginosa,"Pseudomonas aeruginosa; 96-well plate, 37° C., 10 h",12.5 µg/mL
same,MIC against C. diversus,"Citrobacter diversus; 96-well plate, 37° C., 10 h",25 µg/mL
same,MIC against S. marcescens,"Serratia marcescens; 96-well plate, 37° C., 10 h",25 µg/mL
same,MIC,E. coli DH5α,25 µg/mL
PRT1210 (SVNPCSSKPCLYGGTCVVDNGGFVCQCRGLYTGQRCQ; listed as Homo sapiens),MIC against M. catarrhalis,Moraxella catarrhalis; [2],25 µg/mL
same,MIC against E. coli BL21,E. coli BL21; [3],12.5 µg/mL
same,MIC against P. vulgaris,Proteus vulgaris; [4],25 µg/mL
same,MIC against A. hydrophila,Aeromonas hydrophila; [5],25 µg/mL
same,MIC against K. pneumonia,Klebsiella pneumonia; [6],12.5 µg/mL
same,MIC against P. mirabilis,Proteus mirabilis; [7],12.5 µg/mL
same,MIC against E. cloacae,Enterobacter cloacae; [8],25 µg/mL
same,MIC against P. aeruginosa,Pseudomonas aeruginosa; [9],25 µg/mL
same,MIC against C. diversus,Citrobacter diversus; [10],12.5 µg/mL
same,MIC against S. marcescens,Serratia marcescens; [11],12.5 µg/mL
same,MIC,E. coli DH5α,25 µg/mL
PRT1037 (DCSRPCPPGRQKSPRDPCQCVCHGSAVTTQDCC; listed as Homo sapiens),MIC,"Moraxella catarrhalis; M. catarrhalis, 10 h cultivation at 37° C.",25 µg/mL
same,MIC,"E. coli BL21; E. coli BL21, 10 h cultivation at 37° C.",50 µg/mL
same,MIC,"Proteus vulgaris; P. vulgaris, 10 h cultivation at 37° C.",50 µg/mL
same,MIC,"Aeromonas hydrophila; A. hydrophila, 10 h cultivation at 37° C.",25 µg/mL
same,MIC,"Klebsiella pneumonia; K. pneumonia, 10 h cultivation at 37° C.",12.5 µg/mL
same,MIC,"Proteus mirabilis; P. mirabilis, 10 h cultivation at 37° C.",12.5 µg/mL
same,MIC,"Enterobacter cloacae; E. cloacae, 10 h cultivation at 37° C.",25 µg/mL
same,MIC,"Pseudomonas aeruginosa; P. aeruginosa, 10 h cultivation at 37° C.",50 µg/mL
same,MIC,"Citrobacter diversus; C. diversus, 10 h cultivation at 37° C.",50 µg/mL
same,MIC,"Serratia marcescens; S. marcescens, 10 h cultivation at 37° C.",50 µg/mL
same,MIC,E. coli DH5α,12.5 µg/mL
